Here are results for 9 molecules from patent US9546172B2, “Pyrazolo[3,4-d]pyrimidine and pyrazolo[2,3-d]pyrimidine compounds as kinase inhibitors” (Pharmacyclics LLC, priority 2011, dated 2017).

Holding throughout (type): biochemical
The target of assay [1] is T1, Tec (Homo sapiens, UniProt P42680).
T1 sequence (P42680 1-631): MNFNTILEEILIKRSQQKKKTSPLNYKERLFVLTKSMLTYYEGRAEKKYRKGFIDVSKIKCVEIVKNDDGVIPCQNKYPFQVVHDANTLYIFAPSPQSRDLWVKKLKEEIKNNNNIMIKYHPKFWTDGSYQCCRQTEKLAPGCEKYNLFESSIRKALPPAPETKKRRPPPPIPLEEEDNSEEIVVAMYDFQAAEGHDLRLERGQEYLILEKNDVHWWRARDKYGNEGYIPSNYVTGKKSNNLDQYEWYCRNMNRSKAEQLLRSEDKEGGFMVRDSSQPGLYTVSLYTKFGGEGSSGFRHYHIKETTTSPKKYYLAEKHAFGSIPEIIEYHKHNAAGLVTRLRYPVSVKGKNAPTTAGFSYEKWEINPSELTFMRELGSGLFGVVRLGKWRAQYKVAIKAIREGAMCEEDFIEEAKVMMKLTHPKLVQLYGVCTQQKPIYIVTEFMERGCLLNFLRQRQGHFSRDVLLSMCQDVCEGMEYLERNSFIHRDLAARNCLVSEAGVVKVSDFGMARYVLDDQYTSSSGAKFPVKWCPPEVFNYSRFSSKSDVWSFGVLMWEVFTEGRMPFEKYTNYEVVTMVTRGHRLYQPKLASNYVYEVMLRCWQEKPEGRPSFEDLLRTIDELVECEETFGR
The assay can be described thus: Tec kinase inhibition. The protocol:
(§1) Btk kinase activity was determined using a time-resolved fluorescence resonance energy transfer (TR-FRET) methodology. Measurements were performed in a reaction volume of 50 μL using 96-well assay plates. […] The reaction was quenched by the addition of 1.2 equivalents of EDTA (relative to divalent cation) in 25 μL of 1× Lance buffer (Perkin-Elmer). Streptavidin-APC (Perkin-Elmer) and Eu-labeled p-Tyr100 antibody (Perkin-Elmer) in 1× Lance buffer were added in a 25 μL volume to give final concentrations of 100 nM and 2.5 nM, respectively, and the mixture was allowed to incubate for one hour. The TR-FRET signal was measured on a multimode plate reader with an excitation wavelength (λEx) of 330 nm and detection wavelengths (λEm) of 615 and 665 nm. Activity was determined by the ratio of the fluorescence at 665 nm to that at 615 nm. For each compound, enzyme activity was measured at various concentrations of compound. Negative control reactions were performed in the absence of inhibitor in replicates of six, and two no-enzyme controls were used to determine baseline fluorescence levels Inhibition constants, Ki(app), were obtained using the program BatchKi (Kuzmic et al. (2000), Anal. Biochem. 286:45-50). IC50s were obtained according to the equation: IC50={Ki(app)/(1+[ATP]/Km^ATP)}+[E]total/2; For all kinases, [ATP]=Km^ATP, [Btk]total=0.5 nM and [Lck]total=6 nM.

Assay [2] concerns the target BLK (Homo sapiens, UniProt P51451). The assay is described as follows: BLK kinase inhibition. The protocol:
as §1

The target of assay [3] is C-src (Homo sapiens, UniProt P12931). The assay can be described thus: C-src kinase inhibition. The method, then: as §1
C-src, sequence (P12931 whole entry): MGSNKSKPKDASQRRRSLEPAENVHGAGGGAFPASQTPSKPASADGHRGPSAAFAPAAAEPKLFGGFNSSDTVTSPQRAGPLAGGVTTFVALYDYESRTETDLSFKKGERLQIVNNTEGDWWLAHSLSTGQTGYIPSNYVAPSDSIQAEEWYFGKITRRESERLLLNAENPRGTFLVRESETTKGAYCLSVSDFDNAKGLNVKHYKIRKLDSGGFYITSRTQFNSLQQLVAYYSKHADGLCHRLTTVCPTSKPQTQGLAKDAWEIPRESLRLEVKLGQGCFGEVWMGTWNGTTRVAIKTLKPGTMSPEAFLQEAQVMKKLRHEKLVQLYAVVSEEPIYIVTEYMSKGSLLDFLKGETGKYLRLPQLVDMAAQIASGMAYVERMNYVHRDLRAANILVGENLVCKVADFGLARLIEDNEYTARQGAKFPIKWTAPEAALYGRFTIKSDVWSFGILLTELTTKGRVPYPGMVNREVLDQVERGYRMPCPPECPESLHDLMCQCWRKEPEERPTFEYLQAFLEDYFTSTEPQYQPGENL
For assay [4], the target named is RET (Homo sapiens, UniProt P07949). The assay is described as follows: RET kinase inhibition.
RET, sequence (P07949 29-1114): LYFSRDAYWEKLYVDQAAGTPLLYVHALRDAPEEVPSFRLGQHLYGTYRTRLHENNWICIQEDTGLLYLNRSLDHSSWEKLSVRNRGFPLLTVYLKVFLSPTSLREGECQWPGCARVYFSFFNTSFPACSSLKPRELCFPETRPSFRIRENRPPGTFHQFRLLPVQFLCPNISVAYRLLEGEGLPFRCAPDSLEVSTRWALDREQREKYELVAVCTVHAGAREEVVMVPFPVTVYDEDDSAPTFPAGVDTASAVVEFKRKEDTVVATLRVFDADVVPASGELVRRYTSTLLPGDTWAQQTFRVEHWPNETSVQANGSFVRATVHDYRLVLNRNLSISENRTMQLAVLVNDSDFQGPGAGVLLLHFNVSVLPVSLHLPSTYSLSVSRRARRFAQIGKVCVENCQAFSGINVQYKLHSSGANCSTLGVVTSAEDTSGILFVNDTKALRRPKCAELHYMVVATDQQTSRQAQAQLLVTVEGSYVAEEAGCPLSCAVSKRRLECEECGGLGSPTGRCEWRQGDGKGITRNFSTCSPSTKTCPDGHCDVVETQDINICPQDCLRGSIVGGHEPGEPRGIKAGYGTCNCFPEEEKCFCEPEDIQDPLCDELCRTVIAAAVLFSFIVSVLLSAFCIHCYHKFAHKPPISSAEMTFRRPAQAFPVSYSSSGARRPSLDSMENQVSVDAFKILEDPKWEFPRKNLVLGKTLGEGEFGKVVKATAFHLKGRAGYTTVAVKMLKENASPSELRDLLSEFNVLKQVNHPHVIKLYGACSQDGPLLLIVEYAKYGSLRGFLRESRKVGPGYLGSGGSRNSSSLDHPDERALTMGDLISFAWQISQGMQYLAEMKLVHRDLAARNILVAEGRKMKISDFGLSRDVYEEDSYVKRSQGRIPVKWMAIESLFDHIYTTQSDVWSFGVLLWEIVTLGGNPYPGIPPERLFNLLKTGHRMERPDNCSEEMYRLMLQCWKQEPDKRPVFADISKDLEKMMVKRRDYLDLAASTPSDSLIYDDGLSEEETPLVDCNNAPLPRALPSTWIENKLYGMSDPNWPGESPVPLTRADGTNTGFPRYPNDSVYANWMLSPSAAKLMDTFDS
Assay [5] deals with Lyn (Homo sapiens, UniProt P07948). The assay is described as follows: Lyn kinase inhibition.
Lyn, sequence (P07948 whole entry): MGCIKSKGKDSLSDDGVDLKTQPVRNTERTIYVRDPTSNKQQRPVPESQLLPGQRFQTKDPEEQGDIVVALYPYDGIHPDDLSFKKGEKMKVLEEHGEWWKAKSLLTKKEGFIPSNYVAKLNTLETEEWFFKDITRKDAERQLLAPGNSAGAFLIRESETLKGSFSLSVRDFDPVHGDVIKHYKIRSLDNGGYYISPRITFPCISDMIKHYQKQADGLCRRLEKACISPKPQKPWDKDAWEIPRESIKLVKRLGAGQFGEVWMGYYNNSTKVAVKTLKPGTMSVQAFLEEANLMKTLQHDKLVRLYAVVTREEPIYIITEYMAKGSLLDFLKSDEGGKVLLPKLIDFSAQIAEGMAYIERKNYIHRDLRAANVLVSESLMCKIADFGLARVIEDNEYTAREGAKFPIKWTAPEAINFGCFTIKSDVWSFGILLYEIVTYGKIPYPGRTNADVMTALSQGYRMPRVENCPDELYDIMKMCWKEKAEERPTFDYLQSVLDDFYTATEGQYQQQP
In assay [6] the target is Lck (Homo sapiens, UniProt P06239). The assay is described as follows: Lck kinase inhibition. The protocol: as §1
Lck, sequence (P06239 whole entry): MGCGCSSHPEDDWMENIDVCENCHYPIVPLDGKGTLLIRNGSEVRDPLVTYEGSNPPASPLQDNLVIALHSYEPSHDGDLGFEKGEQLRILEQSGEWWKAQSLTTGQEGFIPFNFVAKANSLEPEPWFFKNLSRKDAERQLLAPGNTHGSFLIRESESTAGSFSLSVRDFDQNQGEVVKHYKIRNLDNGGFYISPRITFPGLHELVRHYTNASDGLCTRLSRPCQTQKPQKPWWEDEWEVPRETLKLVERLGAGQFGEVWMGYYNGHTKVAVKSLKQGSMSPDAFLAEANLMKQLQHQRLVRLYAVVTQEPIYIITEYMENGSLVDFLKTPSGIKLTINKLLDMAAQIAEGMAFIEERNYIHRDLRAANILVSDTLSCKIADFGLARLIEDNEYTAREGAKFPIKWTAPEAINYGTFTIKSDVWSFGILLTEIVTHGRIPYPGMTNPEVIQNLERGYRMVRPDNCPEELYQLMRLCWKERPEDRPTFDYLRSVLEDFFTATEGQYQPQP
Assay [7] concerns the target T2, BMX (Homo sapiens, UniProt P51813).
T2 sequence (P51813 1-675): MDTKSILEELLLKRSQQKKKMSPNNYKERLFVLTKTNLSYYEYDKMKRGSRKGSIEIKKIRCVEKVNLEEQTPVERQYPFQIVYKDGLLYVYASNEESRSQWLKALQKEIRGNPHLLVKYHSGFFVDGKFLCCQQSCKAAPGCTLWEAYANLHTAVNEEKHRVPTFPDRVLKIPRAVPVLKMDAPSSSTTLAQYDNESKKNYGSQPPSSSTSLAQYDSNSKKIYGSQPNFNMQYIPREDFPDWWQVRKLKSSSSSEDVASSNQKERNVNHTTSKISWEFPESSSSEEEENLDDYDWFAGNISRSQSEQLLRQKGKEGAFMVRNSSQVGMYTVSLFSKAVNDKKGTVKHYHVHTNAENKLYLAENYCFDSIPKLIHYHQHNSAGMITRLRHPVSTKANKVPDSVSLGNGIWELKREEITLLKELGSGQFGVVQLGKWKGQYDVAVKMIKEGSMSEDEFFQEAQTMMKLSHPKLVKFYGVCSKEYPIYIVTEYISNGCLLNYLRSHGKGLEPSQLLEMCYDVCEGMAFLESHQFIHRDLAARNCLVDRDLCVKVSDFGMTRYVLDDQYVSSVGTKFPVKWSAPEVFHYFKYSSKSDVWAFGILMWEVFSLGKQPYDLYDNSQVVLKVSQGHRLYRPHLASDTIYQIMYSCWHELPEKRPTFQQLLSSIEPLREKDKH
The assay can be described thus: BMX kinase inhibition.

Assay [8] addresses EGFR (Homo sapiens, UniProt P00533). The assay is described as follows: EGFR kinase inhibition.
Assay [9] deals with CSK (Homo sapiens, UniProt P41240). The assay can be described thus: CSK kinase inhibition.
CSK, sequence (P41240 whole entry): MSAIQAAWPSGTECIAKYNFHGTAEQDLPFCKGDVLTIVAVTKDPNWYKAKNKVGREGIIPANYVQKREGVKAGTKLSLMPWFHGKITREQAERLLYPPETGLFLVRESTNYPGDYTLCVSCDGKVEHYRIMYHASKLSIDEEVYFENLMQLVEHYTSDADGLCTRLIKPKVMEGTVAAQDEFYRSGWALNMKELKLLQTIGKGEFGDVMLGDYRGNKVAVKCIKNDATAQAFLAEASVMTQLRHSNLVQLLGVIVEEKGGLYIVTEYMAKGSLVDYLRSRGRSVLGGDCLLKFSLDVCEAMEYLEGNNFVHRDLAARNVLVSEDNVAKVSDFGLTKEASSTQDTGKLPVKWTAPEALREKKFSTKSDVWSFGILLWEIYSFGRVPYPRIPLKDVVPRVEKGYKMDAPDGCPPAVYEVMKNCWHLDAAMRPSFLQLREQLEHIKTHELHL
Assay [10] addresses T3, Btk (Homo sapiens, UniProt Q06187).
T3 construct: purified from insect cells as a full-length construct containing a N-terminal 6×-His tag; 6xHis (N); host or cells: insect cells (baculovirus Sf21 in Method B)
The assay can be described thus: Btk in vitro inhibitory activity (one of Methods A, B, C). As to conditions: determined in one of three in vitro assays (Examples 125-127). An outline of the steps: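 Values come from one of three formats: TR-FRET (665/615 nm ratio; Ki(app) converted to IC50 with [ATP]=Km, 0.5 nM Btk), mobility-shift product/sum ratio over 12 concentrations with 4-parameter fit, or radiometric filter binding using His-tagged full-length human Btk (8 nM), 0.2 mg/mL poly-Glu-Tyr, 1 μM ATP, 120 min RT.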

BLK, sequence (P51451 whole entry): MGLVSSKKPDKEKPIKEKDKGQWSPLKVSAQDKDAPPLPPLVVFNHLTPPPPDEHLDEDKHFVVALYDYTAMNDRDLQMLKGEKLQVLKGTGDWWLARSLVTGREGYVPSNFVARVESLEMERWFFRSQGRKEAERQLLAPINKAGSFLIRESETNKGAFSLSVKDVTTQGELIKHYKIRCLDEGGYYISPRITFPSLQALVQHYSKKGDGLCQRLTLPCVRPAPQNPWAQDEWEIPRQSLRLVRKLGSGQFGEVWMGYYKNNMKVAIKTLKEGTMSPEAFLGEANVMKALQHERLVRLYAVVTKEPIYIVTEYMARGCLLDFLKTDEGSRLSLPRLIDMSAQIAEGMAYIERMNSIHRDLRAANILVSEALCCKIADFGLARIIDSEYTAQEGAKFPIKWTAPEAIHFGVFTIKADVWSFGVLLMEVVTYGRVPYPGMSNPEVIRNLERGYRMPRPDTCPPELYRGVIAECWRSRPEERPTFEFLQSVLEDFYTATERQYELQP
T3 sequence (Q06187 whole entry): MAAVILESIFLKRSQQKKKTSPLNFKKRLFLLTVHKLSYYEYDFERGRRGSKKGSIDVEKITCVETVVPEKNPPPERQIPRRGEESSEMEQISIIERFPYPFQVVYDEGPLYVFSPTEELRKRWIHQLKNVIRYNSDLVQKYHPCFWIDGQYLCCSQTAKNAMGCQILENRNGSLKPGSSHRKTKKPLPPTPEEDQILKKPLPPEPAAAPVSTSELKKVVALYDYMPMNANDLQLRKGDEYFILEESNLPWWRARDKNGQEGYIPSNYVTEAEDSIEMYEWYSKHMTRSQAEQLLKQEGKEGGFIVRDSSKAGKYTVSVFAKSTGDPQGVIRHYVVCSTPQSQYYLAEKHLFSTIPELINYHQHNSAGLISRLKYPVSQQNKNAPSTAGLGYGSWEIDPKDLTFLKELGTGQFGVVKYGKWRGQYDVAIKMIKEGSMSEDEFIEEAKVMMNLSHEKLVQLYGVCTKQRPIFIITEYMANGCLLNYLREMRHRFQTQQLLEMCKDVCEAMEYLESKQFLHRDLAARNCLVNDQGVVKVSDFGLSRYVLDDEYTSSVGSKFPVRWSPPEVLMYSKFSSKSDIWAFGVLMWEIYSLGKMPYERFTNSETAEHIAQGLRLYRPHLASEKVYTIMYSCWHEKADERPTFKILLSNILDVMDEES

What is called IC50 is the concentration needed to halve the response being measured. Read a low IC50 as greater potency in that assay. `COc1ccc(-c2nn([C@@H]3CCN(C(=O)/C=C/CN(C)C)C3)c3ncnc(N)c23)cc1` [Example 5, (R,E)-1-(3-(4-amino-3-(4-methoxyphenyl)-1H-pyrazolo[3,4-d]pyrimidin-1-yl)pyrrolidin-1-yl)-4-(dimethylamino)but-2-en-1-one]: the IC50 in assay [1] was less than 0.1 µM; in assay [2], less than 0.1 µM; in assay [3], 0.1 to 1 µM; in assay [4], 0.1 to 1 µM; in assay [5], 0.1 to 1 µM; in [6], 0.1 to 1 µM. Also, the IC50 in [7] is less than 0.1 µM; in assay [8], greater than 1 µM; in [9], greater than 1 µM; in [10] it was less than 0.1 µM.
For `COc1cccc(-c2nn([C@@H]3CCN(C(=O)/C=C/CN(C)C)C3)c3ncnc(N)c23)c1` [Example 6, (R,E)-1-(3-(4-amino-3-(3-methoxyphenyl)-1H-pyrazolo[3,4-d]pyrimidin-1-yl)pyrrolidin-1-yl)-4-(dimethylamino)but-2-en-1-one], the IC50 in [1] is less than 0.1 µM; in assay [2] it was less than 0.1 µM; in assay [3], less than 0.1 µM; in assay [4] it was 0.1 to 1 µM; in [5] it was 0.1 to 1 µM; in [6] it was 0.1 to 1 µM. For the same molecule, the IC50 in assay [7] is less than 0.1 µM; in assay [8] it was 0.1 to 1 µM; in assay [9] it was greater than 1 µM; in [10] it was less than 0.1 µM.
For `CN(C)C/C=C/C(=O)N1CC[C@@H](n2nc(-c3ccc(Cl)cc3F)c3c(N)ncnc32)C1` [Example 7, (R,E)-1-(3-(4-amino-3-(4-chloro-2-fluorophenyl)-1H-pyrazolo[3,4-d]pyrimidin-1-yl)pyrrolidin-1-yl)-4-(dimethylamino)but-2-en-1-one], the IC50 in assay [1] is less than 0.1 µM; in assay [2], 0.1 to 1 µM; in assay [3], less than 0.1 µM; in assay [4] it was 0.1 to 1 µM; in [5], 0.1 to 1 µM; in assay [6], 0.1 to 1 µM. Further, the IC50 in assay [7] was less than 0.1 µM; in assay [8], 0.1 to 1 µM; in [9], 0.1 to 1 µM; in assay [10], less than 0.1 µM.
For the molecule `COc1cc(-c2nn([C@@H]3CCN(C(=O)/C=C/CN(C)C)C3)c3ncnc(N)c23)ccc1F` [Example 8, (R,E)-1-(3-(4-amino-3-(4-fluoro-3-methoxyphenyl)-1H-pyrazolo[3,4-d]pyrimidin-1-yl)pyrrolidin-1-yl)-4-(dimethylamino)but-2-en-1-one], the half-maximal inhibitory concentration (IC50) was less than 0.1 µM in assay [1]; 0.1 to 1 µM in assay [2]; 0.1 to 1 µM in assay [3]; greater than 1 µM in assay [4]; greater than 1 µM in [5]; 0.1 to 1 µM in assay [6]. Further, the IC50 is less than 0.1 µM in [7], 0.1 to 1 µM in [8], greater than 1 µM in assay [9] and less than 0.1 µM in [10].
For the molecule `COc1cc(-c2nn([C@@H]3CCN(C(=O)/C=C/CN(C)C)C3)c3ncnc(N)c23)ccc1C` [Example 9, (R,E)-1-(3-(4-amino-3-(3-methoxy-4-methylphenyl)-1H-pyrazolo[3,4-d]pyrimidin-1-yl)pyrrolidin-1-yl)-4-(dimethylamino)but-2-en-1-one], the 50% inhibitory concentration (IC50) in assay [1] is less than 0.1 µM; in assay [2], less than 0.1 µM; in [3], less than 0.1 µM; in assay [4], greater than 1 µM; in assay [5] it was 0.1 to 1 µM; in assay [6], less than 0.1 µM. Besides, the IC50 in [7] is less than 0.1 µM; in [8], less than 0.1 µM; in assay [9], 0.1 to 1 µM; in assay [10], less than 0.1 µM.
Consider `CN(C/C=C/C(=O)N1CC[C@@H](n2nc(-c3ccc(Cl)cc3)c3c(N)ncnc32)C1)C1CCC1` [Example 10, (R,E)-1-(3-(4-amino-3-(4-chlorophenyl)-1H-pyrazolo[3,4-d]pyrimidin-1-yl)pyrrolidin-1-yl)-4-(cyclobutyl(methyl)amino)but-2-en-1-one], for which the IC50 in assay [1] was less than 0.1 µM; in assay [2] it was 0.1 to 1 µM; in assay [3], greater than 1 µM; in assay [4], 0.1 to 1 µM; in assay [5], greater than 1 µM; in [6], 0.1 to 1 µM. For the same molecule, the IC50 in assay [7] is less than 0.1 µM; in [8], 0.1 to 1 µM; in assay [9] it was greater than 1 µM; in assay [10], less than 0.1 µM.
With `CN(C/C=C/C(=O)N1CC[C@@H](n2nc(-c3ccc(F)cc3)c3c(N)ncnc32)C1)C1CCC1` [Example 11, (R,E)-1-(3-(4-amino-3-(4-fluorophenyl)-1H-pyrazolo[3,4-d]pyrimidin-1-yl)pyrrolidin-1-yl)-4-(cyclobutyl(methyl)amino)but-2-en-1-one], the IC50 in assay [1] is less than 0.1 µM; in assay [2] it was greater than 1 µM; in assay [3], greater than 1 µM; in assay [4], greater than 1 µM; in [5] it was greater than 1 µM; in assay [6], 0.1 to 1 µM. Further, the IC50 in [7] was less than 0.1 µM; in assay [8], greater than 1 µM; in [9], greater than 1 µM; in assay [10] it was less than 0.1 µM.
For the molecule `Cc1ccc(-c2nn([C@@H]3CCN(C(=O)/C=C/CN(C)C4CCC4)C3)c3ncnc(N)c23)cc1` [Example 12, (R,E)-1-(3-(4-amino-3-p-tolyl-1H-pyrazolo[3,4-d]pyrimidin-1-yl)pyrrolidin-1-yl)-4-(cyclobutyl(methyl)amino)but-2-en-1-one], the IC50 in assay [1] was less than 0.1 µM; in assay [2] it was 0.1 to 1 µM; in [3] it was 0.1 to 1 µM; in [4] it was 0.1 to 1 µM; in assay [5], greater than 1 µM; in assay [6], 0.1 to 1 µM. Besides, the IC50 in [7] is less than 0.1 µM; in assay [8] it was greater than 1 µM; in [9] it was greater than 1 µM; in assay [10], less than 0.1 µM.
On to `COc1cccc(-c2nn([C@@H]3CCN(C(=O)/C=C/CN(C)C4CCC4)C3)c3ncnc(N)c23)c1` [Example 13, (R,E)-1-(3-(4-amino-3-(3-methoxyphenyl)-1H-pyrazolo[3,4-d]pyrimidin-1-yl)pyrrolidin-1-yl)-4-(cyclobutyl(methyl)amino)but-2-en-1-one], for which the IC50 in assay [1] was less than 0.1 µM; in assay [2] it was 0.1 to 1 µM; in assay [3], greater than 1 µM; in [4], greater than 1 µM; in assay [5], greater than 1 µM; in [6], 0.1 to 1 µM. The IC50 in [7] is less than 0.1 µM; in assay [8], greater than 1 µM; in [9], greater than 1 µM; in [10] it was less than 0.1 µM.
